Structures can show the parent of a compound that is named as a salt.
Columns and labels:
Type in all cases: in vitro ADME
[1] = In vitro Colonic Material Stability Assay; conditions: colonic material slurry in YCFAC media, anaerobic, 1 or 10 μM
Method: Assay 3. In vitro Colonic Material Stability Assay. This assay was used to assess the stability of a conjugate in a large intestine. All experiments were performed in an anaerobic chamber containing 90% nitrogen, 5% hydrogen and 5% carbon dioxide. Colonic material was resuspended as a slurry (15% w/v final concentration) in pre-reduced, anaerobically sterilized dilution blanks (Anaerobe Systems AS-908). The colonic material was then inoculated into 96 well plates containing YCFAC media (Anaerobe Systems AS-680) or other suitable media (6.7 μL slurry into 1 mL total media). Compounds or groups of compounds were added to each individual well to reach a final analyte concentration of 1 or 10 μM, and the material was mixed by pipetting. Sample was removed after set timepoints (0, 120, 240, 480, 1440, 2880 minutes after initiation of the assay), quenched with acetonitrile containing internal standard, and analyzed by LC/MS.

[2] = Stability of conjugates in Simulated Gastric Fluid (SGF); conditions: SGF pH 1.6 with pepsin, 37° C., 1 μM compound
Method: Assay 1. Stability of conjugates in Simulated Gastric Fluid (SGF). This assay was used to assess the stability of a conjugate in a stomach.
Medium was prepared by dissolving 2 g of sodium chloride in 0.6 L in ultrapure water (MilliQ®, Millipore Sigma, Darmstadt, Germany). The pH was adjusted to 1.6 with 1N hydrochloric acid, and the volume was then adjusted to 1 L with purified water.
60 mg FaSSIF powder (Biorelevant™, London, UK) were dissolved in 500 mL buffer (above). Pepsin was added (0.1 mg/mL) (Millipore Sigma, Darmstadt, Germany), and the solution was stirred. The resulting SGF media were used fresh for each experiment.
Test compounds were dissolved in DMSO stock to 1 mM. An aliquot of the DMSO stock solution was removed and diluted in the SGF Media in 15 mL falcon tubes to generate a total compound concentration of 1 μM. A 1 mL aliquot was immediately removed and diluted once with 1 volume of acetonitrile for TO timepoint. The mixture was sealed and mixed at 37° C. in an incubator. Aliquots (1 mL) were removed at regular intervals and immediately quenched by the addition of 1 volume of acetonitrile. The resulting samples were analyzed by LC/MS to determine degradation rates in SGF.

[3] = Stability of conjugates in Simulated Intestinal Fluid (SIF); conditions: SIF pH 6.7 with pancreatin, 37° C., 1 μM compound
Method: Assay 2. Stability of conjugates in Simulated Intestinal Fluid (SIF). This assay was used to assess the stability of a conjugate in a small intestine.
Phosphate buffer was prepared by dissolving 0.42 g of sodium hydroxide pellets and 3.95 g of monobasic sodium phosphate monohydrate and 6.19 g of sodium chloride in ultrapure water (MilliQ®, Millipore Sigma, Darmstadt, Germany). The pH was adjusted to 6.7 using aq. HCl and aq. NaOH, as necessary, and the solution was diluted with ultrapure water to produce 1 L of the pH 6.7 buffer.
112 mg FaSSIF powder (Biorelevant™, London, UK) was dissolved in 50 mL of the pH 6.7 buffer. 2 to 3 mL of the resulting solution were then added to 500 mg pancreatin (Millipore Sigma, Darmstadt, Germany). The resulting mixture was agitated by finger tapping the vessel containing the mixture until milky suspension formed. At this time, the remainder of the 50 mL FaSSiF/pH 6.7 buffer solution was added. The resulting suspension was flipped upside down 10 times to produce SIF, which was used fresh.
Test compounds were dissolved in DMSO stock to 1 mM. An aliquot of the DMSO stock solution was removed and diluted in the SIF media in 15 mL falcon tubes to produce a mixture with a tested compound concentration of 1 μM. A 1 mL aliquot was immediately removed and diluted once with 1 volume of acetonitrile for TO timepoint. The mixture was sealed and agitated at 37° C. in an incubator. Aliquots (1 mL) were removed at regular intervals and immediately quenched by the addition of 1 volume of acetonitrile. The resulting samples were analyzed by LC/MS to determine degradation rates

| Structure (SMILES) | Assay 3 (% Remaining at 24 h) [1] | Assay 1 (SGF) (% Remaining @ 1 hour) [2] | Assay 2 (SIF) (% @ Remaining 4 hours) [3] |
| --- | --- | --- | --- |
| CCC(=O)O[C@@H]1[C@@H](OC(=O)CC)[C@H](OC(=O)/C=C/C(=O)OC)OC[C@@H]1OC(=O)CC [Compound 5, Methyl ((2S,3R,4S,5S)-3,4,5-tris(propionyloxy)tetrahydro-2H-pyran-2-yl) fumarate] | A (A: <25% of the tested compound remaining) | C (C: >75% of the tested compound remaining) | C (C: >75% of the tested compound remaining) |
| CCCC(=O)O[C@@H]1[C@@H](OC(=O)CCC)[C@H](OC(=O)/C=C/C(=O)OC)OC[C@H]1OC(=O)CCC [Compound 7, Methyl ((2S,3R,4S,5R)-3,4,5-tris(butyryloxy)tetrahydro-2H-pyran-2-yl) fumarate] | C (C: >75% of the tested compound remaining) | C (C: >75% of the tested compound remaining) | A (A: <25% of the tested compound remaining) |
| CCCC(=O)O[C@@H]1[C@@H](OC(=O)CCC)[C@@H](OC(=O)/C=C/C(=O)OC)OC[C@H]1OC(=O)CCC [Compound 8, Methyl ((2R,3R,4S,5R)-3,4,5-tris(butyryloxy)tetrahydro-2H-pyran-2-yl) fumarate] | C (C: >75% of the tested compound remaining) | C (C: >75% of the tested compound remaining) | A (A: <25% of the tested compound remaining) |
| CCC(=O)O[C@H]1[C@@H](OC(=O)/C=C/C(=O)OC)OC[C@@H](OC(=O)CC)[C@H]1OC(=O)CC [Compound 9, Methyl ((2R,3R,4R,5R)-3,4,5-tris(propionyloxy)tetrahydro-2H-pyran-2-yl) fumarate] | C (C: >75% of the tested compound remaining) | C (C: >75% of the tested compound remaining) | A (A: <25% of the tested compound remaining) |
| CCCC(=O)OC[C@H]1O[C@@H](OC(=O)/C=C/C(=O)OC)[C@H](OC(=O)CCC)[C@@H](OC(=O)CCC)[C@@H]1OC(=O)CCC [Compound 10, Methyl ((2S,3R,4S,5R,6R)-3,4,5-tris(butyryloxy)-6-((butyryloxy)methyl)tetrahydro-2H-pyran-2-yl) fumarate] | B (B: 25-75% of the tested compound remaining) | B (B: 25-75% of the tested compound remaining) | B (B: 25-75% of the tested compound remaining) |
| CCCC(=O)OC[C@H]1O[C@H](OC(=O)/C=C/C(=O)OC)[C@H](OC(=O)CCC)[C@@H](OC(=O)CCC)[C@@H]1OC(=O)CCC [Compound 11, Methyl ((2R,3R,4S,5R,6R)-3,4,5-tris(butyryloxy)-6-((butyryloxy)methyl)tetrahydro-2H-pyran-2-yl) fumarate] | B (B: 25-75% of the tested compound remaining) | B (B: 25-75% of the tested compound remaining) | B (B: 25-75% of the tested compound remaining) |
| CCCC(=O)O[C@@H]1[C@@H](OC(=O)CCC)[C@@H](OC(=O)/C=C/C(=O)OC)OC[C@@H]1OC(=O)CCC [Compound 12, Methyl ((2R,3R,4S,5S)-3,4,5-tris(butyryloxy)tetrahydro-2H-pyran-2-yl) fumarate] | C (C: >75% of the tested compound remaining) | C (C: >75% of the tested compound remaining) | A (A: <25% of the tested compound remaining) |
| CCCC(=O)O[C@H]1[C@H](OC(=O)CCC)[C@H](OC(=O)/C=C/C(=O)OC)O[C@@H](C)[C@H]1OC(=O)CCC [Compound 13, Methyl ((2S,3S,4R,5R,6S)-3,4,5-tris(butyryloxy)-6-methyltetrahydro-2H-pyran-2-yl) fumarate] | C (C: >75% of the tested compound remaining) | B (B: 25-75% of the tested compound remaining) | A (A: <25% of the tested compound remaining) |
| CCCC(=O)O[C@@H]1[C@@H](OC(=O)CCC)[C@H](C)O[C@H](OC(=O)/C=C/C(=O)OC)[C@@H]1OC(=O)CCC [Compound 14, Methyl ((2R,3R,4R,5S,6S)-3,4,5-tris(butyryloxy)-6-methyltetrahydro-2H-pyran-2-yl) fumarate] | C (C: >75% of the tested compound remaining) | C (C: >75% of the tested compound remaining) | A (A: <25% of the tested compound remaining) |
| CCCC(=O)O[C@@H]1O[C@H](COC(=O)/C=C/C(=O)OC)[C@@H](OC(=O)CCC)[C@H](OC(=O)CCC)[C@H]1OC(=O)CCC [Compound 23, Methyl (((2R,3R,4S,5R,6S)-3,4,5,6-tetrakis(butyryloxy)tetrahydro-2H-pyran-2-yl)methyl) fumarate] | A (A: <25% of the tested compound remaining) | B (B: 25-75% of the tested compound remaining) | A (A: <25% of the tested compound remaining) |
| CCCC(=O)O[C@@H]1[C@@H](OC(=O)CCC)[C@H](OC(=O)/C=C/C(=O)OC)OC[C@@H]1OC(=O)CCC [Compound 36, 1-methyl (2S,3R,4S,5S)-3,4,5-tris(butanoyloxy)oxan-2-yl (2E)-but-2-enedioate] | C (C: >75% of the tested compound remaining) | C (C: >75% of the tested compound remaining) | A (A: <25% of the tested compound remaining) |
| CCCC(=O)O[C@@H]1[C@@H](OC(=O)CCC)[C@H](OC(=O)/C=C/C(=O)OC)O[C@H](CO)[C@H]1OC(=O)CCC [Compound 38, 1-methyl (2S,3R,4S,5R,6R)-3,4,5-tris(butanoyloxy)-6-(hydroxymethyl)oxan-2-yl (2E)-but-2-enedioate] | A (A: <25% of the tested compound remaining) | C (C: >75% of the tested compound remaining) | A (A: <25% of the tested compound remaining) |
| CCCC(=O)O[C@@H]1[C@@H](OC(=O)CCC)[C@@H](OC(=O)/C=C/C(=O)OC)O[C@H](CO)[C@H]1OC(=O)CCC [Compound 39, 1-methyl (2R,3R,4S,5R,6R)-3,4,5-tris(butanoyloxy)-6-(hydroxymethyl)oxan-2-yl (2E)-but-2-enedioate] | A (A: <25% of the tested compound remaining) | C (C: >75% of the tested compound remaining) | A (A: <25% of the tested compound remaining) |
| CCCC(=O)O[C@H]1O[C@H](COC(=O)/C=C/C(=O)OC)[C@@H](OC(=O)CCC)[C@H](OC(=O)CCC)[C@H]1OC(=O)CCC [Compound 40, 1-methyl 4-[(2R,3R,4S,5R,6R)-3,4,5,6-tetrakis(butanoyloxy)oxan-2-yl]methyl (2E)-but-2-enedioate] | A (A: <25% of the tested compound remaining) | B (B: 25-75% of the tested compound remaining) | A (A: <25% of the tested compound remaining) |
